Assay results as given in the NIST ThermoML archive (doi:10.1021/acs.jced.5b00367).
Where “and” joins values, the source holds several entries; their conditions need not be identical. Equal values may be shown once.

Experiment: wn = mass fraction of the nth substance listed
Settings: 101 kPa, Liquid, Alternating current cell with electrodes, w2 = 0.01

CCCCCCCCCCCC[N+](C)(C)C.[Br-] [dodecyltrimethylammonium bromide] + O
Settings | electrical conductivity
279.15 K | 0.186 S/m
279.25 K | 0.186 S/m
279.35 K | 0.186 S/m
279.45 K | 0.186 S/m
279.55 K | 0.186 S/m
279.65 K | 0.186 S/m
279.85 K | 0.186 S/m
279.95 K | 0.186 S/m
280.05 K | 0.186 S/m
280.15 K | 0.186 S/m
280.25 K | 0.186 S/m
280.35 K | 0.186 S/m
280.45 K | 0.186 S/m
280.55 K | 0.186 S/m
280.65 K | 0.186 S/m
280.75 K | 0.185 S/m
280.85 K | 0.185 S/m
280.95 K | 0.185 S/m
281.05 K | 0.185 S/m
281.15 K | 0.185 S/m
281.25 K | 0.185 S/m
281.35 K | 0.185 S/m
281.45 K | 0.185 S/m
281.55 K | 0.185 S/m
281.65 K | 0.185 S/m
281.85 K | 0.185 S/m
281.95 K | 0.185 S/m
282.05 K | 0.185 S/m
282.15 K | 0.185 S/m
282.25 K | 0.185 S/m
282.35 K | 0.184 S/m
282.45 K | 0.184 S/m
282.55 K | 0.184 S/m
282.65 K | 0.184 S/m
282.75 K | 0.184 S/m
282.85 K | 0.184 S/m
282.95 K | 0.184 S/m
283.05 K | 0.184 S/m
283.15 K | 0.184 S/m
283.25 K | 0.184 S/m
283.35 K | 0.184 S/m
283.45 K | 0.184 S/m
283.55 K | 0.184 S/m
283.65 K | 0.184 S/m
283.75 K | 0.184 S/m
283.85 K | 0.184 S/m
283.95 K | 0.184 S/m
284.05 K | 0.183 S/m and 0.184 S/m
284.15 K | 0.184 S/m
284.25 K | 0.183 S/m
284.35 K | 0.183 S/m
284.45 K | 0.183 S/m
284.55 K | 0.183 S/m
284.65 K | 0.183 S/m
284.75 K | 0.183 S/m
284.85 K | 0.183 S/m
284.95 K | 0.183 S/m
285.05 K | 0.183 S/m
285.15 K | 0.183 S/m
288.05 K | 0.182 S/m
288.15 K | 0.182 S/m
288.25 K | 0.182 S/m
288.35 K | 0.182 S/m
288.45 K | 0.182 S/m
288.55 K | 0.182 S/m
288.65 K | 0.182 S/m
288.75 K | 0.182 S/m
288.85 K | 0.182 S/m
288.95 K | 0.182 S/m
289.85 K | 0.183 S/m
289.95 K | 0.183 S/m
290.05 K | 0.183 S/m
290.15 K | 0.183 S/m
290.25 K | 0.183 S/m
290.35 K | 0.183 S/m
290.45 K | 0.183 S/m
290.55 K | 0.183 S/m
290.65 K | 0.183 S/m
290.75 K | 0.183 S/m
290.85 K | 0.183 S/m
290.95 K | 0.183 S/m
291.05 K | 0.183 S/m
291.15 K | 0.183 S/m
291.25 K | 0.183 S/m
291.35 K | 0.183 S/m
291.45 K | 0.183 S/m
291.55 K | 0.183 S/m
291.65 K | 0.183 S/m
291.75 K | 0.183 S/m
291.85 K | 0.183 S/m
292.15 K | 0.183 S/m
292.25 K | 0.183 S/m
292.65 K | 0.183 S/m
292.75 K | 0.183 S/m
292.85 K | 0.183 S/m
292.95 K | 0.184 S/m
293.05 K | 0.184 S/m
293.15 K | 0.184 S/m
293.25 K | 0.184 S/m
294.25 K | 0.184 S/m
294.35 K | 0.184 S/m
294.45 K | 0.184 S/m
294.55 K | 0.184 S/m
294.75 K | 0.184 S/m
294.85 K | 0.185 S/m
294.95 K | 0.185 S/m
295.15 K | 0.185 S/m
295.25 K | 0.185 S/m
295.45 K | 0.185 S/m
295.65 K | 0.185 S/m
295.75 K | 0.185 S/m
296.05 K | 0.185 S/m
296.15 K | 0.185 S/m
296.55 K | 0.185 S/m
296.85 K | 0.186 S/m
297.05 K | 0.186 S/m
297.25 K | 0.186 S/m
297.45 K | 0.186 S/m
297.65 K | 0.186 S/m
297.85 K | 0.186 S/m
298.15 K | 0.186 S/m
298.65 K | 0.187 S/m
298.85 K | 0.187 S/m
299.05 K | 0.187 S/m
299.25 K | 0.188 S/m
299.55 K | 0.188 S/m
299.75 K | 0.188 S/m
299.85 K | 0.188 S/m
300.05 K | 0.188 S/m
300.25 K | 0.188 S/m
300.45 K | 0.188 S/m
300.75 K | 0.189 S/m
301.05 K | 0.189 S/m
301.55 K | 0.189 S/m
301.75 K | 0.189 S/m
301.95 K | 0.19 S/m
302.25 K | 0.19 S/m
302.55 K | 0.19 S/m
302.75 K | 0.19 S/m
302.95 K | 0.191 S/m
303.25 K | 0.191 S/m
303.65 K | 0.191 S/m
303.85 K | 0.191 S/m
304.15 K | 0.192 S/m
305.45 K | 0.193 S/m
306.15 K | 0.194 S/m
306.45 K | 0.194 S/m
306.75 K | 0.194 S/m
307.05 K | 0.195 S/m
307.85 K | 0.195 S/m
308.15 K | 0.196 S/m
308.45 K | 0.196 S/m
308.75 K | 0.196 S/m
309.35 K | 0.197 S/m
309.55 K | 0.197 S/m
309.85 K | 0.198 S/m
310.05 K | 0.198 S/m
310.35 K | 0.199 S/m
310.65 K | 0.199 S/m
310.95 K | 0.199 S/m
311.35 K | 0.199 S/m
